From the NIST ThermoML archive (doi:10.1021/je7003929)
Numbers after ± are expanded uncertainties.

Assay: xn = mol fraction of the nth substance listed
Conditions: Liquid, Vibrating tube method

c1ccc2sccc2c1 [benzo[b]thiophene] + CCCCCC
Conditions	mass density [kg/m3]
312.99 K, 1009 kPa, x2 = 0.2588	1009 ± 0.5
312.99 K, 2023 kPa, x2 = 0.2588	1009.7 ± 0.5
312.99 K, 3016 kPa, x2 = 0.2588	1010.5 ± 0.5
312.99 K, 4029 kPa, x2 = 0.2588	1011.2 ± 0.5
312.99 K, 5004 kPa, x2 = 0.2588	1011.9 ± 0.5
312.99 K, 6021 kPa, x2 = 0.2588	1012.6 ± 0.5
312.99 K, 7031 kPa, x2 = 0.2588	1013.3 ± 0.5
312.99 K, 8005 kPa, x2 = 0.2588	1014 ± 0.5
312.99 K, 9022 kPa, x2 = 0.2588	1014.8 ± 0.5
312.99 K, 10016 kPa, x2 = 0.2588	1015.4 ± 0.5
312.99 K, 11004 kPa, x2 = 0.2588	1016.1 ± 0.5
312.99 K, 12015 kPa, x2 = 0.2588	1016.8 ± 0.5
312.99 K, 13015 kPa, x2 = 0.2588	1017.5 ± 0.5
312.99 K, 14003 kPa, x2 = 0.2588	1018.2 ± 0.5
312.99 K, 15011 kPa, x2 = 0.2588	1018.9 ± 0.5
312.99 K, 16003 kPa, x2 = 0.2588	1019.5 ± 0.5
312.99 K, 17010 kPa, x2 = 0.2588	1020.2 ± 0.5
312.99 K, 18002 kPa, x2 = 0.2588	1020.9 ± 0.5
312.99 K, 19029 kPa, x2 = 0.2588	1021.5 ± 0.5
312.99 K, 20017 kPa, x2 = 0.2588	1022.2 ± 0.5
313 K, 1011 kPa, x2 = 0.0629	1112.7 ± 0.5
313 K, 2027 kPa, x2 = 0.0629	1113.3 ± 0.5
313 K, 3046 kPa, x2 = 0.0629	1113.9 ± 0.5
313 K, 4018 kPa, x2 = 0.0629	1114.5 ± 0.5
313 K, 5014 kPa, x2 = 0.0629	1115.2 ± 0.5
313 K, 6016 kPa, x2 = 0.0629	1115.7 ± 0.5
313 K, 7014 kPa, x2 = 0.0629	1116.3 ± 0.5
313 K, 8008 kPa, x2 = 0.0629	1116.9 ± 0.5
313 K, 9013 kPa, x2 = 0.0629	1117.6 ± 0.5
313 K, 10003 kPa, x2 = 0.0629	1118.1 ± 0.5
313 K, 11005 kPa, x2 = 0.0629	1118.7 ± 0.5
313 K, 12017 kPa, x2 = 0.0629	1119.3 ± 0.5
313 K, 13017 kPa, x2 = 0.0629	1119.9 ± 0.5
313 K, 14023 kPa, x2 = 0.0629	1120.5 ± 0.5
313 K, 15024 kPa, x2 = 0.0629	1121 ± 0.5
313 K, 16016 kPa, x2 = 0.0629	1121.6 ± 0.5
313 K, 17014 kPa, x2 = 0.0629	1122.3 ± 0.6
313 K, 18019 kPa, x2 = 0.0629	1122.8 ± 0.6
313 K, 19014 kPa, x2 = 0.0629	1123.4 ± 0.6
313 K, 20000 kPa, x2 = 0.0629	1124 ± 0.6
313.11 K, 1023 kPa, x2 = 0.9432	669 ± 0.5
313.11 K, 2023 kPa, x2 = 0.9432	670 ± 0.5
313.11 K, 3037 kPa, x2 = 0.9432	671 ± 0.5
313.11 K, 4019 kPa, x2 = 0.9432	672.2 ± 0.5
313.11 K, 5025 kPa, x2 = 0.9432	673.3 ± 0.5
313.11 K, 6058 kPa, x2 = 0.9432	674.4 ± 0.5
313.11 K, 7008 kPa, x2 = 0.9432	675.5 ± 0.5
313.11 K, 8047 kPa, x2 = 0.9432	676.6 ± 0.5
313.11 K, 9025 kPa, x2 = 0.9432	677.6 ± 0.5
313.11 K, 10040 kPa, x2 = 0.9432	678.6 ± 0.5
313.11 K, 11000 kPa, x2 = 0.9432	679.6 ± 0.5
313.11 K, 12016 kPa, x2 = 0.9432	680.7 ± 0.5
313.11 K, 13019 kPa, x2 = 0.9432	681.6 ± 0.5
313.11 K, 14016 kPa, x2 = 0.9432	682.6 ± 0.5
313.11 K, 15029 kPa, x2 = 0.9432	683.6 ± 0.5
313.11 K, 16024 kPa, x2 = 0.9432	684.5 ± 0.5
313.11 K, 17011 kPa, x2 = 0.9432	685.5 ± 0.5
313.11 K, 18015 kPa, x2 = 0.9432	686.4 ± 0.6
313.11 K, 19046 kPa, x2 = 0.9432	687.4 ± 0.6
313.11 K, 20016 kPa, x2 = 0.9432	688.2 ± 0.6
313.13 K, 1017 kPa, x2 = 0.7491	761.8 ± 0.5
313.13 K, 2027 kPa, x2 = 0.7491	762.9 ± 0.5
313.13 K, 3031 kPa, x2 = 0.7491	764 ± 0.5
313.13 K, 4039 kPa, x2 = 0.7491	764.9 ± 0.5
313.13 K, 5021 kPa, x2 = 0.7491	765.9 ± 0.5
313.13 K, 6027 kPa, x2 = 0.7491	766.9 ± 0.5
313.13 K, 7021 kPa, x2 = 0.7491	767.9 ± 0.5
313.13 K, 8054 kPa, x2 = 0.7491	768.9 ± 0.5
313.13 K, 9007 kPa, x2 = 0.7491	769.8 ± 0.5
313.13 K, 10018 kPa, x2 = 0.7491	770.7 ± 0.5
313.13 K, 11018 kPa, x2 = 0.7491	771.6 ± 0.5
313.13 K, 12036 kPa, x2 = 0.7491	772.6 ± 0.5
313.13 K, 13021 kPa, x2 = 0.7491	773.5 ± 0.5
313.13 K, 14007 kPa, x2 = 0.7491	774.3 ± 0.5
313.13 K, 15006 kPa, x2 = 0.7491	775.2 ± 0.5
313.13 K, 16012 kPa, x2 = 0.7491	776 ± 0.5
313.13 K, 17016 kPa, x2 = 0.7491	776.9 ± 0.5
313.13 K, 18000 kPa, x2 = 0.7491	777.8 ± 0.5
313.13 K, 19017 kPa, x2 = 0.7491	778.6 ± 0.5
313.13 K, 20030 kPa, x2 = 0.7491	779.5 ± 0.5
313.15 K, 1025 kPa, x2 = 0.4495	910.7 ± 0.4
313.15 K, 2010 kPa, x2 = 0.4495	911.5 ± 0.4
313.15 K, 3028 kPa, x2 = 0.4495	912.4 ± 0.5
313.15 K, 4011 kPa, x2 = 0.4495	913.2 ± 0.5
313.15 K, 5013 kPa, x2 = 0.4495	914 ± 0.5
313.15 K, 6021 kPa, x2 = 0.4495	914.8 ± 0.5
313.15 K, 7010 kPa, x2 = 0.4495	915.6 ± 0.5
313.15 K, 8033 kPa, x2 = 0.4495	916.4 ± 0.5
313.15 K, 9029 kPa, x2 = 0.4495	917.2 ± 0.5
313.15 K, 10015 kPa, x2 = 0.4495	918 ± 0.5
313.15 K, 11018 kPa, x2 = 0.4495	918.8 ± 0.5
313.15 K, 12012 kPa, x2 = 0.4495	919.5 ± 0.5
313.15 K, 13010 kPa, x2 = 0.4495	920.3 ± 0.5
313.15 K, 14022 kPa, x2 = 0.4495	921 ± 0.5
313.15 K, 15019 kPa, x2 = 0.4495	921.8 ± 0.5
313.15 K, 16008 kPa, x2 = 0.4495	922.6 ± 0.5
313.15 K, 17018 kPa, x2 = 0.4495	923.3 ± 0.5
313.15 K, 18027 kPa, x2 = 0.4495	924.1 ± 0.5
313.15 K, 19006 kPa, x2 = 0.4495	924.8 ± 0.5
313.15 K, 20006 kPa, x2 = 0.4495	925.5 ± 0.5
322.05 K, 1026 kPa, x2 = 0.4495	901.9 ± 0.4
322.05 K, 2020 kPa, x2 = 0.4495	902.8 ± 0.4
322.05 K, 3015 kPa, x2 = 0.4495	903.7 ± 0.4
322.05 K, 4003 kPa, x2 = 0.4495	904.5 ± 0.5
322.05 K, 5014 kPa, x2 = 0.4495	905.4 ± 0.5
322.05 K, 6021 kPa, x2 = 0.4495	906.3 ± 0.5
322.05 K, 7015 kPa, x2 = 0.4495	907.2 ± 0.5
322.05 K, 8009 kPa, x2 = 0.4495	908 ± 0.5
322.05 K, 9028 kPa, x2 = 0.4495	908.9 ± 0.5
322.05 K, 10013 kPa, x2 = 0.4495	909.7 ± 0.5
322.05 K, 11021 kPa, x2 = 0.4495	910.5 ± 0.5
322.05 K, 12023 kPa, x2 = 0.4495	911.3 ± 0.5
322.05 K, 13008 kPa, x2 = 0.4495	912.1 ± 0.5
322.05 K, 14021 kPa, x2 = 0.4495	913 ± 0.5
322.05 K, 15012 kPa, x2 = 0.4495	913.7 ± 0.5
322.05 K, 16018 kPa, x2 = 0.4495	914.5 ± 0.5
322.05 K, 17012 kPa, x2 = 0.4495	915.3 ± 0.5
322.05 K, 18012 kPa, x2 = 0.4495	916.1 ± 0.5
322.05 K, 19007 kPa, x2 = 0.4495	916.9 ± 0.5
322.05 K, 20015 kPa, x2 = 0.4495	917.7 ± 0.5
322.89 K, 1017 kPa, x2 = 0.2588	1000 ± 0.5
322.89 K, 2023 kPa, x2 = 0.2588	1000.8 ± 0.5
322.89 K, 3021 kPa, x2 = 0.2588	1001.5 ± 0.5
322.89 K, 4016 kPa, x2 = 0.2588	1002.3 ± 0.5
322.89 K, 5026 kPa, x2 = 0.2588	1003.1 ± 0.5
322.89 K, 6030 kPa, x2 = 0.2588	1003.8 ± 0.5
322.89 K, 7028 kPa, x2 = 0.2588	1004.6 ± 0.5
322.89 K, 8018 kPa, x2 = 0.2588	1005.3 ± 0.5
322.89 K, 9014 kPa, x2 = 0.2588	1006 ± 0.5
322.89 K, 10021 kPa, x2 = 0.2588	1006.7 ± 0.5
322.89 K, 11005 kPa, x2 = 0.2588	1007.5 ± 0.5
322.89 K, 12022 kPa, x2 = 0.2588	1008.2 ± 0.5
322.89 K, 13013 kPa, x2 = 0.2588	1008.9 ± 0.5
322.89 K, 14012 kPa, x2 = 0.2588	1009.6 ± 0.5
322.89 K, 15017 kPa, x2 = 0.2588	1010.3 ± 0.5
322.89 K, 16016 kPa, x2 = 0.2588	1011 ± 0.5
322.89 K, 17002 kPa, x2 = 0.2588	1011.7 ± 0.5
322.89 K, 18014 kPa, x2 = 0.2588	1012.4 ± 0.5
322.89 K, 19024 kPa, x2 = 0.2588	1013.1 ± 0.5
322.89 K, 20016 kPa, x2 = 0.2588	1013.8 ± 0.5
